Assay results taken from patent US11091497B2, “Pyrano[3,4-b]pyrazine kappa opioid receptor ligands for treating addiction, pruritus, pain, and inflammation” (The Rockefeller University, priority 2017, dated 2021).

Columns and labels:
[1] = target: T1, human kappa opioid receptors (Homo sapiens, UniProt P41145); assay: [35S]GTPγS stimulation, membranes from U2OS cells; assay type: biochemical; conditions: for Emax: read-out: GTPγS stimulation % efficacy
T1 construct: expressed in transfected cells; host or cells: U2OS

Serum prolactin levels = assay: Prolactin release in mice; assay type: in vivo; conditions: intraperitoneal, 30 minutes prior to sampling
Description: Mice were injected intraperitoneally with the compound to be tested 30 minutes prior to sampling. Trunk blood was collected by rapid decapitation, followed within 2 hours by preparation of serum. Serum prolactin levels were determined using a commercially available enzyme-linked immunoassay (AbCam, Cambridge, UK) following dilution of serum 5-fold in assay buffer.

T1 sequence (P41145 whole entry): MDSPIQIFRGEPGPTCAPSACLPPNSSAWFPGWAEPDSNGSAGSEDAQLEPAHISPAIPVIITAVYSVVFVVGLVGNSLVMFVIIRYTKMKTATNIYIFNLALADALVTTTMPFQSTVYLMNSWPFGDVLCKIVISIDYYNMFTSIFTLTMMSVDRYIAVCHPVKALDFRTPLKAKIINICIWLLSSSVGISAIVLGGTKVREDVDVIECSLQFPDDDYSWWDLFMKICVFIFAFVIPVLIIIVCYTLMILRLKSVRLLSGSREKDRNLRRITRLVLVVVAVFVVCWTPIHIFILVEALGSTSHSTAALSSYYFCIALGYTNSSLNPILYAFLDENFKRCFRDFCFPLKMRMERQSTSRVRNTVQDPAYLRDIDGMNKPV

## O=C(Cc1ccc(Cl)c(Cl)c1)N1CCN[C@@H]2COC[C@H](N3CCCC3)[C@H]21 (racemic) [Example 5A22, 1-[8-pyrrolidin-1-yl-2,3,4,4a,5,7,8,8a-octahydropyrano(3,4-b)pyrazin-1-yl]-2-(3,4-dichlorophenyl)ethanone]
[1]
  EC50: 63 nM
  Emax: 96%
Serum prolactin levels; 5 mg/kg
  prolactin release: significant prolactin release

## CN1CCN(C(=O)Cc2ccc(Cl)c(Cl)c2)[C@H]2[C@H]1COC[C@@H]2N1CCCC1 (racemic) [Example 5A23, 1-[4-methyl-8-pyrrolidin-1-yl-3,4a,5,7,8,8a-hexahydro-2H- -pyrano(3,4-b)pyrazin-1-yl]-2-(3,4-dichlorophenyl)ethanone]
[1]
  EC50: 46 nM
  Emax: 76%
Serum prolactin levels; 30 mg/kg
  prolactin release: significant prolactin release
